In this series the target is SNHG14. The conditions noted are these: ASO.
[1] abbreviates: Mouse Primary Neuronal Cell, 0.005 µM.

After the bases stand the sugars from the 5' end (letter, count) and the backbone: PS all phosphorothioate, else s phosphorothioate and o phosphodiester by linkage. Methylation of C is not given here. l = locked nucleic acid (LNA); d = 2'-deoxy (DNA)

In the case of ATATTTGTCACCTAAC (sugars l4 d10 l2, PS), the target mRNA inhibition is 33% (Human Neuronal Cell, 0.2 µM) and 32% (Human Neuronal Cell, 1 µM).
“ATATTGATTCAATTCCC (sugars lldddddddddldldll, PS)”: the target mRNA inhibition (Human Neuronal Cell, 7.5 µM) is 60%.
“GTTTCCATCTACTATTAA (sugars l1 d11 l2 d1 l3, PS)”: the target mRNA inhibition (Human Neuronal Cell, 7.5 µM) was 52%.
Take “TTACCTACATCTCATAC (sugars l3 d11 l3, PS)”: the target mRNA inhibition runs as follows: (Human Neuronal Cell, 0.2 µM) 0%; (Human Neuronal Cell, 1 µM) 5%; (Human Neuronal Cell, 5 µM) 21%; under setting [1], 91.3%.
With “TTATAGCCATTCTATCT (sugars l1 d10 l2 d2 l2, PS)”, the target mRNA inhibition (Human Neuronal Cell, 7.5 µM) is 48%.
For the sequence “CCTAAGCTCCATATTTA (sugars l3 d11 l3, PS)”, the target mRNA inhibition (Human Neuronal Cell, 0.2 µM) amounted to 30% and the target mRNA inhibition (Human Neuronal Cell, 1 µM) came out at 47%.
Take “TTTATCAATATCTTCTCA (sugars l1 d2 l1 d10 l4, PS)”: where the note is “Human Neuronal Cell, 7.5 µM”, the target mRNA inhibition is 53%.
Consider “ATCTGCTACATATTCTT (sugars l4 d11 l2, PS)”, for which the target mRNA inhibition runs as follows: (Human Neuronal Cell, 0.2 µM) 50%; (Human Neuronal Cell, 1 µM) 59%.
For the sequence “TACACTTAATTATACTTCCA (sugars l1 d4 l1 d11 l3, PS)”, where the note is “Human Neuronal Cell, 7.5 µM”, the target mRNA inhibition stood at 53%.
“TTATAGCCATTCTATCT (sugars ldddlddddddldddll, PS)”: the target mRNA inhibition (Human Neuronal Cell, 7.5 µM) was found to be 42%.
With “AGATCATTCTCAACAATTA (sugars ldlddldddddddddllll, PS)”, the target mRNA inhibition (Human Neuronal Cell, 7.5 µM) turned out to be 50%.
For the sequence “TACCTACATCTCATACTT (sugars l2 d14 l2, PS)”, the target mRNA inhibition (Human Neuronal Cell, 0.2 µM) was -10%; the target mRNA inhibition (Human Neuronal Cell, 1 µM) came to 11%; the target mRNA inhibition (Human Neuronal Cell, 5 µM) is 6%.
Turning to “ATCTTTCCATTTATTTCCAT (sugars ldddddlddddddlddddll, PS)”, the target mRNA inhibition (Human Neuronal Cell, 7.5 µM) came to 41%.
Consider “ACTGTTTATACCCTTTCC (sugars l2 d14 l2, PS)”, for which the target mRNA inhibition reads like this: (Human Neuronal Cell, 0.2 µM) 36%; (Human Neuronal Cell, 1 µM) 50%.
For “ACTGTTTATACCCTTTC (sugars l1 d11 l1 d2 l2, PS)”, the target mRNA inhibition (Human Neuronal Cell, 7.5 µM) stood at 56%.
On to ACAACTTCTATCATAC (sugars l3 d10 l3, PS), for which the target mRNA inhibition is, setting by setting: (Human Neuronal Cell, 0.2 µM) 44%; (Human Neuronal Cell, 1 µM) 55%.
For the sequence “CCATTTATTTCCATTTATT (sugars lddldddddddddlldlll, PS)”, under “Human Neuronal Cell, 7.5 µM”, the target mRNA inhibition was determined as 59%.
For the sequence “TTCTACTATACTTTCCTCT (sugars ldddddddddddlddldll, PS)”, the target mRNA inhibition (Human Neuronal Cell, 7.5 µM) came out at 54%.
Turning to “ATATTGATTCAATTCCC (sugars l2 d1 l1 d10 l3, PS)”, the target mRNA inhibition (Human Neuronal Cell, 7.5 µM) worked out at 65%.
Still for that read-out and setting: the same measure for “CTGTTTATACCCTTTCCA (sugars l1 d3 l1 d11 l2, PS)”: 50%.
“CTGTATACACCATCCCA (sugars l1 d1 l1 d12 l2, PS)”: the target mRNA inhibition (Human Neuronal Cell, 7.5 µM) was 48%.
Take CTGTATACACCATCCC (sugars l2 d12 l2, PS): the target mRNA inhibition (Human Neuronal Cell, 0.2 µM) is 62% and the target mRNA inhibition (Human Neuronal Cell, 1 µM) worked out at 62%.
On to “CTGTATACACCATCCCA (sugars ldldlddddddddldll, PS)”, for which, where the note is “Human Neuronal Cell, 7.5 µM”, the target mRNA inhibition stood at 62%.
For “TACTCTGCAATACACC (sugars l1 d3 l1 d9 l2, PS)”, the target mRNA inhibition (Human Neuronal Cell, 7.5 µM) was determined as 52%.
With “AGATCATTCTCAACAATT (sugars l3 d1 l1 d9 l4, PS)”, under “Human Neuronal Cell, 7.5 µM”, the target mRNA inhibition worked out at 43%.
For the sequence TACCAATAGTTACCTT (sugars l2 d10 l4, PS), the target mRNA inhibition is, setting by setting: (Human Neuronal Cell, 0.2 µM) 30%; (Human Neuronal Cell, 1 µM) 49%.
Regarding “ACTCTGCAATACACCAA (sugars lldllddddddllddll, PS)”, where the note is “Human Neuronal Cell, 7.5 µM”, the target mRNA inhibition turned out to be 38%.
On to “TATTGATTCAATTCCCT (sugars ldldlddddddddldll, PS)”, for which the target mRNA inhibition (Human Neuronal Cell, 7.5 µM) came out at 60%.
On to “CTTAGACTTCACCTTTC (sugars l2 d11 l4, PS)”, for which the target mRNA inhibition was found to be 49% (Human Neuronal Cell, 0.2 µM) and 41% (Human Neuronal Cell, 1 µM).
On to “CTTTTAACCAGAGTGGCAT (sugars l3 d13 l3, PS)”, for which the target mRNA inhibition (Human Neuronal Cell, 7.5 µM) came to 62%.
“TTGATTCAATTCCCTTA (sugars lldldddddddldldll, PS)”: the target mRNA inhibition (Human Neuronal Cell, 7.5 µM) is 59%.
Turning to “AAATCTCAACTACCATTTTT (sugars ldllldddddddddddldll, PS)”, the target mRNA inhibition (Human Neuronal Cell, 7.5 µM) was 45%.
With TATTGATTCAATTCCC (sugars l3 d10 l3, PS), the target mRNA inhibition runs as follows: (Human Neuronal Cell, 0.2 µM) 62%; (Human Neuronal Cell, 1 µM) 68%.
Take “CCATTTATTTCCATTTAT (sugars l3 d12 l3, PS)”: the target mRNA inhibition by setting is: (Human Neuronal Cell, 0.2 µM) 38%; (Human Neuronal Cell, 1 µM) 59%.
GATAATTCCAAATCCC (sugars l2 d10 l4, PS): the target mRNA inhibition turned out to be 16% (Human Neuronal Cell, 0.2 µM) and 6% (Human Neuronal Cell, 1 µM).
As to “TGTTTCCATCTACTATTA (sugars l1 d4 l1 d9 l3, PS)”, the target mRNA inhibition (Human Neuronal Cell, 7.5 µM) was 61%.
As to “TGTTTATACCCTTTCCAA (sugars lddddlddddddldldll, PS)”, the target mRNA inhibition (Human Neuronal Cell, 7.5 µM) came out at 47%.
Still for that read-out and setting: next, “GTTTCCATCTACTATTAAT (sugars ldddlddddddddlddlll, PS)”: 58%.
Take “AAACTCTTGCATCTACT (sugars l2 d13 l2, PS)”: the target mRNA inhibition reads like this: (Human Neuronal Cell, 0.2 µM) 19%; (Human Neuronal Cell, 1 µM) 41%.
For the sequence GTTACCTACATCTCAT (sugars l2 d12 l2, PS), the target mRNA inhibition reads like this: (Human Neuronal Cell, 0.2 µM) -6%; (Human Neuronal Cell, 1 µM) 20%; (Human Neuronal Cell, 5 µM) 31%; under setting [1], 84.2%.
Take “CAACATTATTAACCACCTT (sugars l1 d14 l4, PS)”: the target mRNA inhibition (Human Neuronal Cell, 7.5 µM) amounted to 47%.
“ATTTTTTTCTTACTATCTTC (sugars lldlddddddddddddldll, PS)”: the target mRNA inhibition (Human Neuronal Cell, 7.5 µM) was 50%.
Regarding “TTTCCATTTATTTCCATTTA (sugars lddddldddddddddlddll, PS)”, for the setting “Human Neuronal Cell, 7.5 µM”, the target mRNA inhibition stood at 44%.
Consider TTCCCTTTGATAACAT (sugars l4 d10 l2, PS), for which the target mRNA inhibition was 9% (Human Neuronal Cell, 0.2 µM) and 34% (Human Neuronal Cell, 1 µM).
Regarding “AGCAACATTATTAACCAC (sugars l1 d3 l1 d7 l6, PS)”, the target mRNA inhibition (Human Neuronal Cell, 7.5 µM) was determined as 41%.
With “TTTTTTCTTACTATCTTCAA (sugars l1 d4 l1 d10 l4, PS)”, the target mRNA inhibition (Human Neuronal Cell, 7.5 µM) is 55%.
Consider TGAAACTATTACTCCT (sugars l3 d10 l3, PS), for which the target mRNA inhibition (Human Neuronal Cell, 0.2 µM) was found to be 44% and the target mRNA inhibition (Human Neuronal Cell, 1 µM) turned out to be 61%.
Take “TTACACTTAATTATACTTCC (sugars l1 d5 l1 d9 l4, PS)”: under “Human Neuronal Cell, 7.5 µM”, the target mRNA inhibition was determined as 61%.
Turning to “GATCATTCTCAACAATT (sugars l2 d1 l2 d6 l6, PS)”, the target mRNA inhibition (Human Neuronal Cell, 7.5 µM) turned out to be 10%.
As to “TAAAATTATTTATACACCAT (sugars l2 d1 l2 d11 l4, PS)”, the target mRNA inhibition (Human Neuronal Cell, 7.5 µM) worked out at 49%.
As to “TACTAAACATACACATA (sugars l4 d11 l2, PS)”, the target mRNA inhibition reads like this: (Human Neuronal Cell, 0.2 µM) 9%; (Human Neuronal Cell, 1 µM) 25%.
Consider “TGAAAATCTCAACTACCAT (sugars lddddlddddddldlldll, PS)”, for which the target mRNA inhibition (Human Neuronal Cell, 7.5 µM) stood at 42%.
For “CAACATTATTAACCACCTTA (sugars l1 d13 l3 d1 l2, PS)”, the target mRNA inhibition (Human Neuronal Cell, 7.5 µM) was 47%.
Take AGCATCATATAAACCT (sugars l3 d10 l3, PS): the target mRNA inhibition is 34% (Human Neuronal Cell, 0.2 µM) and 26% (Human Neuronal Cell, 1 µM).
For TTACCAATAGTTACCT (sugars l3 d10 l3, PS), the target mRNA inhibition by setting is: (Human Neuronal Cell, 0.2 µM) 33%; (Human Neuronal Cell, 1 µM) 48%.
Take “ACTTCACACCTATTATAT (sugars l3 d12 l3, PS)”: the target mRNA inhibition by setting is: (Human Neuronal Cell, 0.2 µM) 21%; (Human Neuronal Cell, 1 µM) 45%.
As to TCACTGCCATCAATAC (sugars l4 d10 l2, PS), the target mRNA inhibition runs as follows: (Human Neuronal Cell, 0.2 µM) 42%; (Human Neuronal Cell, 1 µM) 45%.
Take TATTCTTACCGTCTTT (sugars l2 d10 l4, PS): the target mRNA inhibition (Human Neuronal Cell, 0.2 µM) was found to be 60% and the target mRNA inhibition (Human Neuronal Cell, 1 µM) amounted to 68%.
As to “ATTGATTCAATTCCCTT (sugars lddlddddddddlldll, PS)”, the target mRNA inhibition (Human Neuronal Cell, 7.5 µM) worked out at 61%.
As to “GAATTCTTTATTCCTCC (sugars l2 d11 l4, PS)”, the target mRNA inhibition (Human Neuronal Cell, 0.2 µM) is 45% and the target mRNA inhibition (Human Neuronal Cell, 1 µM) turned out to be 41%.
For the sequence “AGTTCTACTATACTTTC (sugars ldlldddddddldllll, PS)”, the target mRNA inhibition (Human Neuronal Cell, 7.5 µM) is 30%.
On the same count and under the same terms, the same measure for “AAGATCATTCTCAACAAT (sugars lllldldddddddlldll, PS)”: 19%.
Take “ATTGATTCAATTCCCTT (sugars ldldddddddddldlll, PS)”: the target mRNA inhibition (Human Neuronal Cell, 7.5 µM) was found to be 54%.
For the sequence “TTTACACTTAATTATACTTC (sugars lllddldddddddlldllll, PS)”, the target mRNA inhibition (Human Neuronal Cell, 7.5 µM) was 15%.
On to “TTCTGTATACACCATCC (sugars l2 d11 l1 d1 l2, PS)”, for which the target mRNA inhibition (Human Neuronal Cell, 7.5 µM) worked out at 56%.
With CAAACCTACGTCTCTC (sugars l2 d10 l4, PS), the target mRNA inhibition (Human Neuronal Cell, 0.2 µM) is 31% and the target mRNA inhibition (Human Neuronal Cell, 1 µM) came out at 26%.
For the sequence “GTTCTACTATACTTTCCT (sugars l1 d15 l2, PS)”, the target mRNA inhibition (Human Neuronal Cell, 7.5 µM) was -8%.
Take “TTCCTTTCATTAACATTT (sugars l4 d12 l2, PS)”: the target mRNA inhibition runs as follows: (Human Neuronal Cell, 0.2 µM) 37%; (Human Neuronal Cell, 1 µM) 55%.
Consider “TATTGATTCAATTCCCT (sugars ldddlddddddllldll, PS)”, for which the target mRNA inhibition (Human Neuronal Cell, 7.5 µM) was found to be 10%.
As to CAACTATTATCTTCTT (sugars l2 d10 l4, PS), the target mRNA inhibition came to 42% (Human Neuronal Cell, 0.2 µM) and 61% (Human Neuronal Cell, 1 µM).
Take ATCTGCTACATATTCT (sugars l4 d10 l2, PS): the target mRNA inhibition by setting is: (Human Neuronal Cell, 0.2 µM) 41%; (Human Neuronal Cell, 1 µM) 61%.
In the same order, the values of “CTGCCATCTTTATTTAT (sugars l4 d11 l2, PS)” are 5% and 9%.
With “CAAGTTTCCTATATTCT (sugars l4 d11 l2, PS)”, the target mRNA inhibition is 66% (Human Neuronal Cell, 0.2 µM) and 70% (Human Neuronal Cell, 1 µM).
Take “TTCTACTATACTTTCCTCT (sugars ldddldddddddldlddll, PS)”: the target mRNA inhibition (Human Neuronal Cell, 7.5 µM) is 58%.
For “TCTGTATACACCATCCC (sugars l2 d1 l1 d11 l2, PS)”, under “Human Neuronal Cell, 7.5 µM”, the target mRNA inhibition amounted to 56%.
For “ATCTCATGACCACCTAA (sugars ldldddddddddlldll, PS)”, for the setting “Human Neuronal Cell, 7.5 µM”, the target mRNA inhibition was determined as 51%.

The record behind these values is the OligoGym collection.
